# Legend:
# Format in all cases: cell-based
# [1] = target: T1, SMARCA4 (Homo sapiens, UniProt P51532); assay: SMARCA4 degradation in H929 cells by Western blot; settings: 16 hours; for SMARCA4 percent degradation at 0.1 µM: NCI-H929, 100 nM
# T1 construct: endogenous in cells; host or cells: NCI-H929 (ATCC CRL-9068)
# Procedure: (§1) Determination of SMARCA2 and SMARCA4 Degradation in H929 Cells by Western Blot:
# (§2) NCI-H929 (ATCC CRL-9068) was plated in 6 well plates using complete RPMI-1640 media. Next day, compounds of present invention were added to cells from 10 mM stocks made in DMSO (Sigma Cat no. D2650). Each concentration of compound was tested with DMSO not exceeding final percentage of 0.3 in the cells. Cells were incubated with the compound for 16 hours followed by harvesting with 1× RIPA lysis buffer (Thermo Fischer, catalogue number #89900) containing protease inhibitor cocktail (Sigma catalogue number #P-8340). Equal amount of protein was loaded on SDS PAGE gel for electrophoresis. Western blot was carried out for detection of either SMARCA2 (Cell signaling technologies, catalogue number #11966) or SMARCA4 antibody (Cell signaling technologies, catalogue number #49360). Beta Actin (Santa Cruz, catalogue number #69879) was used as loading control. Percentage of SMARCA2 or SMARCA4 degradation was calculated using formula % Degradation=100−(normalized band intensity in treated sample/normalized band intensity in DMSO sample)*100.
# (§3) Selected compounds of the present invention were screened in the above mentioned assay procedures for determination of % SMARCA2 and SMARCA4 degradation 100 nM and the results are summarized in below table 30.
# [2] = target: SMARCA2 (Homo sapiens, UniProt P51531); assay: SMARCA2 degradation in H929 cells by Western blot; design: endogenous in cells; settings: 16 hours
# Procedure: as §1, §2, §3
# [3] = system: NCI-H929 cells; assay: Anti proliferative activity in NCI-H929 cell line by Cell Titer Glo assay; settings: Homo sapiens, 72 h, 3 days compound incubation, CellTiter Glo, read-out: Anti-proliferative activity IC50 group (NCI-H929 cells)
# Procedure: (§4) Determination of Anti Proliferative Activity of Compounds in NCI-H929 and NCI-H838 Cell Lines by Cell Titer Glo® (promega) assay:
# (§5) NCI-H929 (ATCC CRL-9068) or NCI-H838 (ATCC CRL-5844) cells were seeded in 96 well plate flat black clear bottom plates (Corning, Cat. No 3904) using complete RPMI-1640 media. Next day, compounds listed in the present invention were added to cells from 10 mM stocks made in DMSO (Sigma Cat no. D2650). Each concentration of compound was tested in triplicate with DMSO concentration at a final percentage not exceeding 0.3 in the cells. After the compound incubation (3 days for H929 and 8 days for H838) assay was terminated using 50 μl of CellTiter Glo® reagent (Promega, Cat. no G7572). CellTiter Glo® Luminescent reagent determines the number of viable cells based on quantitation of ATP present which is an indicator of cell number and metabolic activity. Luminescence readings were taken in Victor-3 instrument. Percent inhibition of proliferation was calculated using formula, % inhibition=100−(luminescence value of test/luminescence value of DMSO control)*100. DMSO control (0%)=Cells in complete media with DMSO; blank=Media alone containing DMSO. IC50 was calculated using graph pad prism software.
# (§6) Herein group “A” refers to IC50 value lower than 1 μM, “B” refers to IC50 value between 1-10 μM (both inclusive) and “C” refers to IC50 value higher than 10 μM or less than 50% activity at 10 μM.
# [4] = system: NCI-H838 cells; assay: Anti proliferative activity in NCI-H838 cell line by Cell Titer Glo assay; settings: Homo sapiens, 192 h, 8 days compound incubation, CellTiter Glo, read-out: Anti-proliferative activity IC50 group (NCI-H838 cells)
# Procedure: as §4, §5, §6
# T1 sequence (P51532 whole entry): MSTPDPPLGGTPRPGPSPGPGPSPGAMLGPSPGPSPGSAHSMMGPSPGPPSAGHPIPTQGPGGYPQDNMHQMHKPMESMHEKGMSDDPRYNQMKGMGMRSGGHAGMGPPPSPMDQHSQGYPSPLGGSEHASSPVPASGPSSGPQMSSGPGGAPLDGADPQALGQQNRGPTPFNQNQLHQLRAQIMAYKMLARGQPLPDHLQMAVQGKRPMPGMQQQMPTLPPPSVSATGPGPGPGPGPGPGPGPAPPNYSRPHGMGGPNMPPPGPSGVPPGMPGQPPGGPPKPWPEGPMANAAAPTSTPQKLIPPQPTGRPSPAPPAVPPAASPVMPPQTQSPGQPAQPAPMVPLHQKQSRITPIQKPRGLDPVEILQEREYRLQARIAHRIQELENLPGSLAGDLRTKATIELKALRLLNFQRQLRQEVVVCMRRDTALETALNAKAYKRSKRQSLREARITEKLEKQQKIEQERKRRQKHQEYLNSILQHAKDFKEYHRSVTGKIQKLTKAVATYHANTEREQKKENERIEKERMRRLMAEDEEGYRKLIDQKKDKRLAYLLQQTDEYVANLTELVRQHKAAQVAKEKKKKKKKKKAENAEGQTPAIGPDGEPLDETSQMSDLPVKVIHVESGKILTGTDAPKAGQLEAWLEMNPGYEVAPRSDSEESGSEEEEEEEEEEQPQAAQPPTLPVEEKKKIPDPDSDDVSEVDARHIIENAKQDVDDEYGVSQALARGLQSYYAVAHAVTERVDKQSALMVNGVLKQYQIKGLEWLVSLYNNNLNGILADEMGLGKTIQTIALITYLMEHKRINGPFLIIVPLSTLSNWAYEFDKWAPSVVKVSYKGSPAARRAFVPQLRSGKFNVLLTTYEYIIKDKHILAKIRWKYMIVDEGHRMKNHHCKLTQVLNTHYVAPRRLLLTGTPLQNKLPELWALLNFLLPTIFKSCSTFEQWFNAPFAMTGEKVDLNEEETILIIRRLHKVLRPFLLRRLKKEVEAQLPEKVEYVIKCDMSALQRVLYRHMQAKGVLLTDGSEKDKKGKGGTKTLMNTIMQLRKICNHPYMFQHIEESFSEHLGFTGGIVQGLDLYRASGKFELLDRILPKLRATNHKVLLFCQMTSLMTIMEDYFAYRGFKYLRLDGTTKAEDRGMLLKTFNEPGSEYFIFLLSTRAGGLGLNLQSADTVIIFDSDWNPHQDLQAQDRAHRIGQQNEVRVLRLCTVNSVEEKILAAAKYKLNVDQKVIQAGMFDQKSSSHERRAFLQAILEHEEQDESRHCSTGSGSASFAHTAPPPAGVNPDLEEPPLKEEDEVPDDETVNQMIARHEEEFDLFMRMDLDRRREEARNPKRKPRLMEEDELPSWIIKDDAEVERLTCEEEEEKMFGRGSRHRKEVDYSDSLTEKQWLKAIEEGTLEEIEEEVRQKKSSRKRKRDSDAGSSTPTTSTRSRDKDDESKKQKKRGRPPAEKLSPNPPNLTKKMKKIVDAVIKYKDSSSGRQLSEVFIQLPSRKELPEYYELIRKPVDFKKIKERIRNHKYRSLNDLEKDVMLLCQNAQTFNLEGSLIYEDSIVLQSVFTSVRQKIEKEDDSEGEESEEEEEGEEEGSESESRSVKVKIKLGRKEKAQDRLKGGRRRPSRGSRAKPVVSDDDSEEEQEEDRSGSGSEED
# SMARCA2, sequence (P51531 whole entry): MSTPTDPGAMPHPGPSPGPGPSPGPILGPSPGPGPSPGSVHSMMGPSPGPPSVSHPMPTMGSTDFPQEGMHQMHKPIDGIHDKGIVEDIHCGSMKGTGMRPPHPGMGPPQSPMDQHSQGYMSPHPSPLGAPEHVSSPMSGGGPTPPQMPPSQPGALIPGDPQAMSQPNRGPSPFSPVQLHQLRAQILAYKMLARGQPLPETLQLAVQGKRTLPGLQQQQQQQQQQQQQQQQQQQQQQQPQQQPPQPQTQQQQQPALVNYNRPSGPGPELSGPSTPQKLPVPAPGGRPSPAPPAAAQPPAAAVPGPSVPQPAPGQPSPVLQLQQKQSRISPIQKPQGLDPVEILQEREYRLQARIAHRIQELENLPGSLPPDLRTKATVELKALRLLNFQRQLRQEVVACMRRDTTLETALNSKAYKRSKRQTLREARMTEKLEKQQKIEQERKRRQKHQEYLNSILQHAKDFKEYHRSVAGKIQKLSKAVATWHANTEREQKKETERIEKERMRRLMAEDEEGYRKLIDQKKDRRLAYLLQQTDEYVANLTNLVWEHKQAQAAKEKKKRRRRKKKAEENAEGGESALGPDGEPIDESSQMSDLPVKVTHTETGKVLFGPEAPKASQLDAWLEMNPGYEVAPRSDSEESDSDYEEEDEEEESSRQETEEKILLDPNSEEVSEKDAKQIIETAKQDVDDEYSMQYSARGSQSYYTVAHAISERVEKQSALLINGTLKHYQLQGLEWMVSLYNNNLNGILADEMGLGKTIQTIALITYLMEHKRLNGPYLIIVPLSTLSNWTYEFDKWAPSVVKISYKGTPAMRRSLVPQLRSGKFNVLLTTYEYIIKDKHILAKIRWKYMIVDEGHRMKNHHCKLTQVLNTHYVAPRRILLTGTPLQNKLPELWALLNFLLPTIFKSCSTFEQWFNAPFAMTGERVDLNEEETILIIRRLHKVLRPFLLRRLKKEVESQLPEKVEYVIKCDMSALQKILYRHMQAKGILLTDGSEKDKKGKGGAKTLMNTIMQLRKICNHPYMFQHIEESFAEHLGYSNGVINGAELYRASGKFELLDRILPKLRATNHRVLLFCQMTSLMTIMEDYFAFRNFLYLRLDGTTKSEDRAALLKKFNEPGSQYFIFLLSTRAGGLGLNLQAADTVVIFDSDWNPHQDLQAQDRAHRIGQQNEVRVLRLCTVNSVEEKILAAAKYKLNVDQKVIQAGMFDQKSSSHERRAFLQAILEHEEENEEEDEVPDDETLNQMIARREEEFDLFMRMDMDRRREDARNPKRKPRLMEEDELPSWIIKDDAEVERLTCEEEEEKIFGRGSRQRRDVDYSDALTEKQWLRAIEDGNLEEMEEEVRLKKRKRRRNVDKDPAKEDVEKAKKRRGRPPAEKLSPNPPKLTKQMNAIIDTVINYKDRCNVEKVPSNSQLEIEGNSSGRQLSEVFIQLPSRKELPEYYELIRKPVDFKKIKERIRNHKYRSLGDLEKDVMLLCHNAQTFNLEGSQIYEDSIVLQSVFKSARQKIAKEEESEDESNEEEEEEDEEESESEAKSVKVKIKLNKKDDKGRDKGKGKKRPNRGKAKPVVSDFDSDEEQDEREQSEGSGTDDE
SMARCA4 Percent degradation @ 100 nM [1],SMARCA2 Percent degradation @ 100 nM [2],IC50 [3],SMARCA4 percent degradation at 0.1 µM [1],IC50 [4],SMILES
28%,5.4%,,,,"CC(=O)O[C@@H]1C[C@@H](C(=O)NCc2ccc(-c3scnc3C)cc2)N(C(=O)[C@@H](NC(=O)CN2CCN(c3cc(-c4ccccc4O)nnc3N)CC2)C(C)(C)C)C1 [Compound 48, (3R,5S)-1-((S)-2-(2-(4-(3-amino-6-(2-hydroxyphenyl)pyridazin-4-yl)piperazin-1-yl)acetamido)-3,3-dimethylbutanoyl)-5-((4-(4-methylthiazol-5-yl)benzyl)carbamoyl)pyrrolidin-3-yl acetate]"
,100%,< 1000 nM,38%,,Cc1ncsc1-c1ccc([C@H](C)NC(=O)[C@@H]2C[C@@H](O)CN2C(=O)[C@@H](NC(=O)CCCCCCCCC(=O)N2CCN(c3cc(-c4ccccc4O)nnc3N)CC2)C(C)(C)C)cc1 [Compound 109]
,58%,,,,"Cc1ncsc1-c1ccc([C@H](C)NC(=O)[C@@H]2C[C@@H](O)CN2C(=O)[C@@H](NC(=O)C(C)C2CCN(c3cc(-c4cccc(F)c4O)nnc3N)CC2)C(C)(C)C)cc1 (single isomer, unassigned) [Compound 84]"
,93%,1000 to 10000 nM,82%,,Cc1ncsc1-c1ccc([C@H](C)NC(=O)[C@@H]2C[C@@H](O)CN2C(=O)[C@@H](NC(=O)CN2CCN(c3cc(-c4ccccc4F)nnc3N)CC2)C(C)(C)C)cc1 [Compound 44]
,96%,< 1000 nM,,,Cc1ncsc1-c1ccc([C@H](C)NC(=O)[C@@H]2C[C@@H](O)CN2C(=O)[C@@H](NC(=O)CCCCCCC(=O)N2CCN(c3cc(-c4ccccc4O)nnc3N)CC2)C(C)(C)C)cc1 [Compound 37]
,88%,< 1000 nM,99%,,Cc1ncsc1-c1ccc([C@H](C)NC(=O)[C@@H]2C[C@@H](O)CN2C(=O)[C@@H](NC(=O)CC2CCN(c3cc(-c4cccc(F)c4O)nnc3N)CC2)C(C)(C)C)cc1 [Compound 98]
,20.2%,> 10000 nM,,,Cc1ncsc1-c1ccc([C@H](C)NC(=O)[C@@H]2C[C@@H](O)CN2C(=O)[C@H](C)NC(=O)CN2CCN(c3cc(-c4ccccc4O)nnc3N)CC2)cc1 [Compound 118]
,99%,< 1000 nM,99%,,"Cc1ncsc1-c1ccc([C@H](C)NC(=O)[C@@H]2C[C@@H](O)CN2C(=O)[C@@H](NC(=O)CN2CCN(c3cc(-c4ccccc4O)nnc3N)CC2)C(C)C)cc1 [Compound 79, (2S,4R)-1-((2-(4-(3-amino-6-(2-hydroxyphenyl)pyridazin-4-yl)piperazin-1-yl)acetyl)-L-valyl)-4-hydroxy-N—((S)-1-(4-(4-methylthiazol-5-yl)phenyl)ethyl)pyrrolidine-2-carboxamide]"
,64%,,60%,,Nc1nnc(-c2ccccc2O)cc1N1CCN(CC(=O)Nc2cccc3c2C(=O)N(C2CCC(=O)NC2=O)C3=O)CC1 (stereo not shown) [Compound 41]
,99%,1000 to 10000 nM,17%,,Cc1ncsc1-c1ccc([C@H](C)NC(=O)[C@@H]2C[C@@H](O)CN2C(=O)[C@@H](NC(=O)CCCCCCCCCC(=O)N2CCN(c3cc(-c4ccccc4O)nnc3N)CC2)C(C)(C)C)cc1 [Compound 38]
,97%,< 1000 nM,,,Cc1ncsc1-c1ccc(CNC(=O)[C@@H]2C[C@@H](O)CN2C(=O)[C@@H](NC(=O)CN2CCN(c3cc(-c4ccccc4O)nnc3N)CC2)C(C)(C)C)cc1 [Compound 39]
,83%,< 1000 nM,93%,,Cc1ncsc1-c1ccc([C@H](C)NC(=O)[C@@H]2C[C@@H](O)CN2C(=O)[C@@H](NC(=O)C(C)(C)N2CCN(c3cc(-c4ccccc4O)nnc3N)CC2)C(C)(C)C)cc1 [Compound 87]
87%,87%,,,,"CC(=O)O[C@@H]1C[C@@H](C(=O)N[C@@H](C)c2ccc(-c3scnc3C)cc2)N(C(=O)[C@@H](NC(=O)CN2CCN(c3cc(-c4ccccc4O)nnc3N)CC2)C(C)(C)C)C1 [Compound 47, (3R,5S)-1-((S)-2-(2-(4-(3-amino-6-(2-hydroxyphenyl)pyridazin-4-yl)piperazin-1-yl)acetamido)-3,3-dimethylbutanoyl)-5-(((S)-1-(4-(4-methylthiazol-5-yl)phenyl)ethyl)carbamoyl)pyrrolidin-3-yl acetate]"
,90%,,12%,,"Cc1ncsc1-c1ccc(C(NC(=O)[C@@H]2C[C@@H](O)CN2C(=O)[C@@H](NC(=O)CC2CCN(c3cc(-c4cccc(F)c4O)nnc3N)CC2)C(C)(C)C)C(F)(F)F)cc1 (stereo partly drawn) [Compound 76, (2S,4R)-1-((S)-2-(2-(1-(3-amino-6-(3-fluoro-2-hydroxyphenyl)pyridazin-4-yl)piperidin-4-yl)acetamido)-3,3-dimethylbutanoyl)-4-hydroxy-N-(2,2,2-trifluoro-1-(4-(4-methylthiazol-5-yl)phenyl)ethyl)pyrrolidine-2-carboxamide]"
,45.4%,1000 to 10000 nM,47%,,CO[C@@H]1C[C@@H](C(=O)N[C@@H](C)c2ccc(-c3scnc3C)cc2)N(C(=O)[C@@H](NC(=O)CN2CCN(c3cc(-c4ccccc4O)nnc3N)CC2)C(C)(C)C)C1 [Compound 117]
,,< 1000 nM,,< 1000 nM,"Cc1ncsc1-c1ccc([C@H](C)NC(=O)[C@@H]2C[C@@H](O)CN2C(=O)[C@@H](NC(=O)CC2(O)CCN(c3cc(-c4ccccc4O)nnc3N)CC2)C(C)(C)C)cc1 [Compound 55, (2S,4R)-1-((S)-2-(2-(1-(3-amino-6-(2-hydroxyphenyl)pyridazin-4-yl)-4-hydroxypiperidin-4-yl)acetamido)-3,3-dimethylbutanoyl)-4-hydroxy-N—((S)-1-(4-(4-methylthiazol-5-yl)phenyl)ethyl)pyrrolidine-2-carboxamide]"
,79.6%,< 1000 nM,,,"Cc1ncsc1-c1ccc([C@H](C)NC(=O)[C@@H]2C[C@@H](O)CN2C(=O)[C@@H](NC(=O)C(C)N2CCN(c3cc(-c4ccccc4O)nnc3N)CC2)C(C)(C)C)cc1 (single isomer, unassigned) [Compound 57]"
,99%,< 1000 nM,100%,,"Cc1ncsc1-c1ccc([C@H](C)NC(=O)[C@@H]2C[C@@H](O)CN2C(=O)[C@@H](NC(=O)C(C)N2CCN(c3cc(-c4ccccc4O)nnc3N)CC2)C(C)(C)C)cc1 (stereo partly drawn) [Compound 56, (2S,4R)-1-((2S)-2-(2-(4-(3-amino-6-(2-hydroxyphenyl)pyridazin-4-yl)piperazin-1-yl)propanamido)-3,3-dimethylbutanoyl)-4-hydroxy-N—((S)-1-(4-(4-methylthiazol-5-yl)phenyl)ethyl)pyrrolidine-2-carboxamide]"

# Source: patent US12371426B2, “Pyridazine derivatives as SMARCA2/4 degraders” (Aurigene Discovery Technologies Limited, priority 2018, dated 2025)
